Experimental data published in patent US12037345B2, “Heterobicyclic compounds for inhibiting the activity of SHP2” (TAIHO PHARMACEUTICAL CO., LTD., priority 2018, dated 2024).

Legend:
SHP2 = SHP2 (Homo sapiens (Human), UniProt Q06124); test: SHP2 Biochemical Assay (DiFMUP conversion, pIRS1-activated); conditions: Table 19; head prints unit as "-M"
Method in brief: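 Human SHP2 (10 pM) pre-incubated 30 min with compound and […] pIRS1 activating peptide, then 50 μM DiFMUP added; buffer 25 mM Bis-Tris propane pH 7.0, 150 mM NaCl, 5% DMSO. Fluorescence rate (ex 360/em 450 nm) over 30 min; IC50 by four-parameter fit, averaged across experiments.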

[1] = system: pERK (phospho-p44/42 ERK) in HCC827 cells; test: Cellular pERK Inhibition Assay, Method A (In-Cell Western); format: cell-based; conditions: Homo sapiens, Table 19, head prints unit as "-M", read-out: pERK (IC50) Method A
Method in brief: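 HCC827 cells in RPMI/10% FBS were treated with compounds in serum-free medium (0.2% DMSO final) at 37 °C for the indicated time, in quadruplicate. Fixed cells were immunostained for phospho-p44/42 ERK and read by infrared imaging. Blank-subtracted signal was expressed as % of DMSO control; IC50 from four-parameter logistic fit, averaged across experiments.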

Chain of SHP2 (Q06124 whole entry): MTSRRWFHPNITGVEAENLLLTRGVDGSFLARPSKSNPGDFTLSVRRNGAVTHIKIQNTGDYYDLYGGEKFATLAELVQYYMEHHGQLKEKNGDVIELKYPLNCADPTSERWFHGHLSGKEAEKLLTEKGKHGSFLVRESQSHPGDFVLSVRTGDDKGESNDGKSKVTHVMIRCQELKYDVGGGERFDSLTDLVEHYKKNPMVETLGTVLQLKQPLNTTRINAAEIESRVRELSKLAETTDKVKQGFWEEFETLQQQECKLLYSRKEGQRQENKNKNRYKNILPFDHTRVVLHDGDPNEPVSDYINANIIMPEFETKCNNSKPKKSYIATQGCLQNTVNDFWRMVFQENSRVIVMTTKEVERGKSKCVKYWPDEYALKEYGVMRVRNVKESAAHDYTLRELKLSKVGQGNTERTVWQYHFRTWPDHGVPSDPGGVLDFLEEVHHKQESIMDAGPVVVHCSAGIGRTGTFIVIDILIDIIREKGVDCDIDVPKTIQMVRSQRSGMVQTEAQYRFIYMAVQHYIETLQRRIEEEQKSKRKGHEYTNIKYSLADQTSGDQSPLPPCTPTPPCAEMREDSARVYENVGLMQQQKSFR

SMILES	IC50 (SHP2)	IC50 [1]
CCn1nc2ccc(-c3c[nH]c4nc(N5[C@H]6CC[C@@H]5[C@H](N)C6)n(C)c(=O)c34)c(Cl)c2c1CO [Example 110, 2-((1R,2R,4S)-2-amino-7-azabicyclo[2.2.1]heptan-7-yl)-5-(4-chloro-2-ethyl-3-(hydroxymethyl)-2H-indazol-5-yl)-3-methyl-3,7-dihydro-4H-pyrrolo[2,3-d]pyrimidin-4-one]	0.014 µM	1.7 µM
CCn1cc2c(Cl)c(-c3n[nH]c4nc(N5C6CCCC5CNC6)n(C)c(=O)c34)ccc2n1 [Example 111, 6-(3,9-diazabicyclo[3.3.1]nonan-9-yl)-3-(4-chloro-2-ethyl-2H-indazol-5-yl)-5-methyl-1,5-dihydro-4H-pyrazolo[3,4-d]pyrimidin-4-one]	0.026 µM	0.41 µM
CCn1cc2c(Cl)c(-c3n[nH]c4nc(N5[C@H]6CC[C@@H]5[C@H](N)C6)n(C)c(=O)c34)ccc2n1 [Example 112, 6-((1R,2R,4S)-2-amino-7-azabicyclo[2.2.1]heptan-7-yl)-3-(4-chloro-2-ethyl-2H-indazol-5-yl)-5-methyl-1,5-dihydro-4H-pyrazolo[3,4-d]pyrimidin-4-one]	0.013 µM	0.26 µM
Cc1nc2ccc(-c3n[nH]c4nc(N5[C@H]6CC[C@@H]5[C@H](N)C6)n(C)c(=O)c34)c(Cl)c2s1 [Example 113, 6-((1R,2R,4S)-2-amino-7-azabicyclo[2.2.1]heptan-7-yl)-3-(7-chloro-2-methylbenzo[d]thiazol-6-yl)-5-methyl-1,5-dihydro-4H-pyrazolo[3,4-d]pyrimidin-4-one]	0.0045 µM	0.078 µM
Cn1nc2ccc(-c3n[nH]c4nc(N5[C@H]6CC[C@@H]5[C@H](N)C6)n(C)c(=O)c34)c(Cl)c2c1Cl [Example 114, 6-((1R,2R,4S)-2-amino-7-azabicyclo[2.2.1]heptan-7-yl)-3-(3,4-dichloro-2-methyl-2H-indazol-5-yl)-5-methyl-1,5-dihydro-4H-pyrazolo[3,4-d]pyrimidin-4-one]	0.0055 µM	0.073 µM
CCn1cc2c(Cl)c(-c3n[nH]c4nc(N5[C@@H]6CC[C@H]5C[C@@](C)(N)C6)n(C)c(=O)c34)ccc2n1 [Example 115, 6-(endo-3-amino-3-methyl-8-azabicyclo[3.2.1]octan-8-yl)-3-(4-chloro-2-ethyl-2H-indazol-5-yl)-5-methyl-1,5-dihydro-4H-pyrazolo[3,4-d]pyrimidin-4-one]	0.046 µM	0.49 µM
Cn1nc2ccc(-c3n[nH]c4nc(N5C6CCCC5CNC6)n(C)c(=O)c34)c(Cl)c2c1Cl [Example 116, 6-(3,9-diazabicyclo[3.3.1]nonan-9-yl)-3-(3,4-dichloro-2-methyl-2H-indazol-5-yl)-5-methyl-1,5-dihydro-4H-pyrazolo[3,4-d]pyrimidin-4-one]	0.009 µM	0.1 µM
Cn1cc2c(Cl)c(-c3n[nH]c4nc(N5C6CCCC5CNC6)n(C)c(=O)c34)ccc2n1 [Example 117, 6-(3,9-diazabicyclo[3.3.1]nonan-9-yl)-3-(4-chloro-2-methyl-2H-indazol-5-yl)-5-methyl-1,5-dihydro-4H-pyrazolo[3,4-d]pyrimidin-4-one]	0.025 µM	0.64 µM
CCn1cc2c(Cl)c(-c3n[nH]c4nc(N5[C@H]6CC[C@@H]5[C@H](NC)C6)n(C)c(=O)c34)ccc2n1 [Example 118, 3-(4-chloro-2-ethyl-2H-indazol-5-yl)-5-methyl-6-((1R,2R,4S)-2-(methylamino)-7-azabicyclo[2.2.1]heptan-7-yl)-1,5-dihydro-4H-pyrazolo[3,4-d]pyrimidin-4-one]	0.049 µM	1.1 µM
CN[C@@H]1C[C@@H]2CC[C@H]1N2c1nc2[nH]nc(-c3ccc4nn(C)c(Cl)c4c3Cl)c2c(=O)n1C [Example 119, 3-(3,4-dichloro-2-methyl-2H-indazol-5-yl)-5-methyl-6-((1R,2R,4S)-2-(methylamino)-7-azabicyclo[2.2.1]heptan-7-yl)-1,5-dihydro-4H-pyrazolo[3,4-d]pyrimidin-4-one]	0.017 µM	0.29 µM
CN[C@@H]1C[C@@H]2CC[C@H]1N2c1nc2[nH]nc(-c3ccc4nn(C)cc4c3Cl)c2c(=O)n1C [Example 120, 3-(4-chloro-2-methyl-2H-indazol-5-yl)-5-methyl-6-((1R,2R,4S)-2-(methylamino)-7-azabicyclo[2.2.1]heptan-7-yl)-1,5-dihydro-4H-pyrazolo[3,4-d]pyrimidin-4-one]	0.029 µM	0.55 µM
CN[C@@H]1C[C@@H]2CC[C@H]1N2c1nc2[nH]nc(-c3ccc4nn(C)c(Cl)c4c3F)c2c(=O)n1C [Example 121, 3-(3-chloro-4-fluoro-2-methyl-2H-indazol-5-yl)-5-methyl-6-((1R,2R,4S)-2-(methylamino)-7-azabicyclo[2.2.1]heptan-7-yl)-1,5-dihydro-4H-pyrazolo[3,4-d]pyrimidin-4-one]	0.016 µM	0.21 µM
Cn1c(N2C3CCCC2CNC3)nc2[nH]nc(-c3ccc4ncsc4c3Cl)c2c1=O [Example 122, 6-(3,9-diazabicyclo[3.3.1]nonan-9-yl)-3-(7-chlorobenzo[d]thiazol-6-yl)-5-methyl-1,5-dihydro-4H-pyrazolo[3,4-d]pyrimidin-4-one]	0.008 µM	0.14 µM
CN[C@@H]1C[C@@H]2CC[C@H]1N2c1nc2[nH]nc(-c3ccc4ncsc4c3Cl)c2c(=O)n1C [Example 123, 3-(7-chlorobenzo[d]thiazol-6-yl)-5-methyl-6-((1R,2R,4S)-2-(methylamino)-7-azabicyclo[2.2.1]heptan-7-yl)-1,5-dihydro-4H-pyrazolo[3,4-d]pyrimidin-4-one]	0.018 µM	0.17 µM
CN[C@@H]1C[C@@H]2CC[C@H]1N2c1nc2[nH]nc(-c3ccc4nc(C)sc4c3Cl)c2c(=O)n1C [Example 124, 3-(7-chloro-2-methylbenzo[d]thiazol-6-yl)-5-methyl-6-((1R,2R,4S)-2-(methylamino)-7-azabicyclo[2.2.1]heptan-7-yl)-1,5-dihydro-4H-pyrazolo[3,4-d]pyrimidin-4-one]	0.019 µM	0.43 µM
CCn1nc2ccc(-c3n[nH]c4nc(N5[C@H]6CC[C@@H]5[C@H](N)C6)n(C)c(=O)c34)c(Cl)c2c1Cl [Example 127, 6-((1R,2R,4S)-2-amino-7-azabicyclo[2.2.1]heptan-7-yl)-3-(3,4-dichloro-2-ethyl-2H-indazol-5-yl)-5-methyl-1,5-dihydro-4H-pyrazolo[3,4-d]pyrimidin-4-one]	0.0037 µM	0.063 µM
CCn1nc2ccc(-c3n[nH]c4nc(N5[C@H]6CC[C@@H]5[C@H](NC)C6)n(C)c(=O)c34)c(Cl)c2c1Cl [Example 128, 3-(3,4-dichloro-2-ethyl-2H-indazol-5-yl)-5-methyl-6-((1R,2R,4S)-2-(methylamino)-7-azabicyclo[2.2.1]heptan-7-yl)-1,5-dihydro-4H-pyrazolo[3,4-d]pyrimidin-4-one]	0.011 µM	0.16 µM
Cn1cc2c(Cl)c(-c3c[nH]c4nc(N5[C@H]6CC[C@@H]5[C@@H](F)[C@H](N)C6)n(C)c(=O)c34)ccc2n1 [Example 129, 2-((1R,2S,3R,5S)-3-amino-2-fluoro-8-azabicyclo[3.2.1]octan-8-yl)-5-(4-chloro-2-methyl-2H-indazol-5-yl)-3-methyl-3,7-dihydro-4H-pyrrolo[2,3-d]pyrimidin-4-one]	0.069 µM	0.98 µM
